Measurements taken from PMC7115410 (European Journal of Medicinal Chemistry, 2018).
Like-named read-outs stand apart in the source and are kept apart here.

Columns and labels:
Chk1 phosphorylation [1] = settings: HCT116 cells
[2] = test system: cleaved caspase 3, cleaved PARP 1, Bax, Bcl2; settings: FOLFOX-HT29 cells, different concentrations, 24 h
Chk1 = Chk1 (Homo sapiens, UniProt O14757); settings: in vitro Chk1 kinase assay, purified Chk1 protein
[3] = test system: cleaved caspase 3, cleaved PARP 1, Bax, Bcl2; settings: FOLFOX-HCT116 cells, different concentrations, 24 h
Chk1 phosphorylation [4] = settings: FOLFOX-HT29 cells, different concentrations, 24 h
γH2AX = settings: HCT-116 cells, 7b (5, 10 and 20 μM), 24 h
HCT116 cells = settings: 25 μM 5-FU alone

Chk1, sequence (O14757 whole entry): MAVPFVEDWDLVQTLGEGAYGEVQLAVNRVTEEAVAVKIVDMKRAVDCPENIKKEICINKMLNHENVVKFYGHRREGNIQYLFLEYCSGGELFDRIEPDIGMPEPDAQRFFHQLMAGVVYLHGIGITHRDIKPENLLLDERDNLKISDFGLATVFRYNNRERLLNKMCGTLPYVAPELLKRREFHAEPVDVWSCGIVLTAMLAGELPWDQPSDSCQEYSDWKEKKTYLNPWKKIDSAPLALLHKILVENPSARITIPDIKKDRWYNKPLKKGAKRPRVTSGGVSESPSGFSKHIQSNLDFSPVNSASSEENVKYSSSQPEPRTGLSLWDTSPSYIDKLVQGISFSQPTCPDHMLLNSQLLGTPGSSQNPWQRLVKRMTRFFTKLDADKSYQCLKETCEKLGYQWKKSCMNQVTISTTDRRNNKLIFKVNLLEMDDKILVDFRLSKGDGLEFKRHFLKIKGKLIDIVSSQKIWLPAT

Compound | Levels of cleaved caspase 3 and PARP1 [2] | Levels of cleaved caspase 3 and PARP1 [3] | Chk1(S345P) phosphorylation (Chk1 phosphorylation [4]) | other results
NC(=O)NO [HU, hydroxyurea, reference compound] |  |  |  | Phosphorylation of Chk1(S317P), Chk1(S345P) and Chk1(S296P) (Chk1 phosphorylation [1]; 1 mM HU alone): high level phosphorylation
ClC/C=C/C[N+]12CN3CN(CN(C3)C1)C2.[Cl-] [Compound 7a, 1-(4-Chloro-but-2-enyl)-3,5,7-triaza-1-azonia-tricyclo[3.3.1.1^3,7]decane; chloride] | increased levels | increased levels | increase | Inhibition of Chk1 activity in a reconstituted purified system (Chk1): do not inhibit
1-(3-Phenyl-allyl)-3,5,7-triaza-1-azonia-tricyclo[3.3.1.1^3,7]decane; chloride [Compound 7b] | increased levels | increased levels | increase | γH2AX-foci, compound alone (γH2AX): increased γH2AX-foci; HU-induced phosphorylation of Chk1(S317P), Chk1(S345P) and Chk1(S296P) (Chk1 phosphorylation [1]; 1 mM HU for 24 h followed by 20 μM 7b for additional 8 h): reduced after combination treatment
O=c1[nH]cc(F)c(=O)[nH]1 [Compound 5-FU, 5-fluorouracil] |  |  |  | Cell cycle profile (HCT116 cells): S phase arrest
